Assay results: PubChem BioAssay AID256 (DTP/NCI, 2004)
Several values for one entry are separate records, joined by “and”; a condition that tells them apart may be missing. Identical values can stand only once. Inconclusive results and toxic doses are left out. Rule for the calls: active = survival T/C of 150% or more; inactive = T/C below 125% in these data.

System: CD2F1 mice, L1210 leukemia ip, survival T/C
Test: NCI In Vivo Anticancer Drug Screen. Data for tumor model L1210 Leukemia (intraperitoneal) in CD2F1 (CDF1) mice
Conditions: higher = longer survival
Summary of the method: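 Antitumor effect is scored in animals hosting a serially transplanted tumor. Values compare compound-dosed animals against vehicle-only controls as a simple quotient.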

[1] = endpoint: mean survival time, dose: 100.0 mg/kg/injection, schedule: Q04DX003 (ip), vehicle: saline with Tween-80
[2] = endpoint: mean survival time, dose: 200.0 mg/kg/injection, schedule: Q04DX003 (ip), vehicle: saline with Tween-80
[3] = endpoint: mean survival time, dose: 400.0 mg/kg/injection, schedule: Q04DX003 (ip), vehicle: saline with Tween-80
[4] = endpoint: mean survival time, dose: 100.0 mg/kg/injection, schedule: Q01DX009 (ip), vehicle: saline with Tween-80
[5] = endpoint: mean survival time, dose: 200.0 mg/kg/injection, schedule: Q01DX009 (ip), vehicle: saline with Tween-80
[6] = endpoint: mean survival time, dose: 400.0 mg/kg/injection, schedule: Q01DX009 (ip), vehicle: saline with Tween-80
[7] = endpoint: mean survival time, dose: 100.0 mg/kg/injection, schedule: Q01DX001 (ip), vehicle: Klucel (hydroxypropylcellulose) (HPC)
[8] = endpoint: mean survival time, dose: 200.0 mg/kg/injection, schedule: Q01DX001 (ip), vehicle: Klucel (hydroxypropylcellulose) (HPC)
[9] = endpoint: mean survival time, dose: 100.0 mg/kg/injection, schedule: Q04DX002 (ip), vehicle: saline with Tween-80
[10] = endpoint: mean survival time, dose: 100.0 mg/kg/injection, schedule: Q01DX001 (ip), vehicle: saline

Measured: T/C

O=C(CCC(=O)c1cccc([N+](=O)[O-])c1)NNc1ccc([N+](=O)[O-])cc1[N+](=O)[O-]
inactive: [1] 98 % of control | [2] 98 % of control | [3] 102 % of control

CCC(=O)NCCc1ccccc1
inactive: [4] 100 % of control | endpoint: mean survival time, dose: 200.0 mg/kg/injection, schedule: Q01DX001 (ip), vehicle: saline with Tween-80 97 % of control | [5] 100 % of control | endpoint: mean survival time, dose: 400.0 mg/kg/injection, schedule: Q01DX001 (ip), vehicle: saline with Tween-80 97 % of control

O=C(CNC(=O)NCc1ccco1)NNC(=O)Nc1ccc(F)c(Cl)c1
inactive: [4] 93 % of control | [5] 88 % of control | [6] 96 % of control

c1coc(-c2nc3ccccc3s2)c1
inactive: endpoint: mean survival time, dose: 50.0 mg/kg/injection, schedule: Q01DX001 (ip), vehicle: Klucel (hydroxypropylcellulose) (HPC) 96 % of control | [7] 93 % of control and 95 % of control | [8] 120 % of control and 90 % of control

CC1(C)N=C(N)N=C(N)N1c1ccc(Cl)c(Cl)c1
inactive: endpoint: mean survival time, dose: 25.0 mg/kg/injection, schedule: Q04DX002 (ip), vehicle: saline with Tween-80 102 % of control | endpoint: mean survival time, dose: 50.0 mg/kg/injection, schedule: Q04DX002 (ip), vehicle: saline with Tween-80 98 % of control | [7] 96 % of control | [9] 90 % of control

CC(C)C1=CC2=C(CC1)C1(C)CCCC(C)(C(=O)O)C1CC2 (stereo unspecified)
inactive: [4] 98 % of control | [1] 104 % of control | [5] 96 % of control | [2] 98 % of control | [6] 89 % of control | [3] 93 % of control

Cc1[nH]c(=O)[nH]c(=O)c1NC(=O)c1ccccc1[N+](=O)[O-]
inactive: endpoint: mean survival time, dose: 12.5 mg/kg/injection, schedule: Q01DX009 (ip), vehicle: saline with Tween-80 98 % of control | endpoint: mean survival time, dose: 12.5 mg/kg/injection, schedule: Q04DX003 (ip), vehicle: saline sonified 100 % of control | endpoint: mean survival time, dose: 25.0 mg/kg/injection, schedule: Q01DX009 (ip), vehicle: saline with Tween-80 104 % of control | endpoint: mean survival time, dose: 25.0 mg/kg/injection, schedule: Q04DX003 (ip), vehicle: saline sonified 103 % of control | endpoint: mean survival time, dose: 50.0 mg/kg/injection, schedule: Q01DX009 (ip), vehicle: saline with Tween-80 97 % of control | endpoint: mean survival time, dose: 50.0 mg/kg/injection, schedule: Q04DX003 (ip), vehicle: saline sonified 94 % of control

N#Cc1cc(N2CC2)c([N+](=O)[O-])cc1[N+](=O)[O-]
inactive: [7] 102 % of control | [8] 103 % of control | endpoint: mean survival time, dose: 400.0 mg/kg/injection, schedule: Q01DX001 (ip), vehicle: Klucel (hydroxypropylcellulose) (HPC) 103 % of control

CCOC(=O)Nc1cccc2c1-c1ccccc1/C2=N\NC(N)=S
inactive: endpoint: mean survival time, dose: 50.0 mg/kg/injection, schedule: Q01DX001 (ip), vehicle: carboxymethylcellulose (CMC) 102 % of control | endpoint: mean survival time, dose: 100.0 mg/kg/injection, schedule: Q01DX001 (ip), vehicle: carboxymethylcellulose (CMC) 104 % of control | endpoint: mean survival time, dose: 200.0 mg/kg/injection, schedule: Q01DX001 (ip), vehicle: carboxymethylcellulose (CMC) 98 % of control | endpoint: mean survival time, dose: 400.0 mg/kg/injection, schedule: Q01DX001 (ip), vehicle: carboxymethylcellulose (CMC) 98 % of control

CN(C)Cc1ccc2ccccc2c1
inactive: endpoint: mean survival time, dose: 50.0 mg/kg/injection, schedule: Q01DX001 (ip), vehicle: saline 102 % of control | [10] 97 % of control

O=C(O)CC(=O)O.[NH-]C1CCCCC1[NH-].[Pt+2] (stereo unspecified)
inactive: endpoint: mean survival time, dose: 1.25 mg/kg/injection, schedule: Q01DX009 (ip), vehicle: saline sonified 110 % of control | endpoint: mean survival time, dose: 2.5 mg/kg/injection, schedule: Q01DX009 (ip), vehicle: saline sonified 119 % of control | endpoint: mean survival time, dose: 10.0 mg/kg/injection, schedule: Q01DX001 (ip), vehicle: suspension in saline 124 % of control | endpoint: mean survival time, dose: 10.0 mg/kg/injection, schedule: Q01DX009 (oral), vehicle: saline 98 % of control | endpoint: mean survival time, dose: 20.0 mg/kg/injection, schedule: Q01DX001 (oral), vehicle: saline 98 % of control | endpoint: mean survival time, dose: 20.0 mg/kg/injection, schedule: Q01DX009 (oral), vehicle: saline 109 % of control | endpoint: mean survival time, dose: 40.0 mg/kg/injection, schedule: Q01DX001 (oral), vehicle: saline 98 % of control | endpoint: mean survival time, dose: 40.0 mg/kg/injection, schedule: Q01DX009 (oral), vehicle: saline 100 % of control | endpoint: mean survival time, dose: 80.0 mg/kg/injection, schedule: Q01DX001 (oral), vehicle: saline 100 % of control | endpoint: mean survival time, dose: 160.0 mg/kg/injection, schedule: Q01DX001 (oral), vehicle: saline 100 % of control | endpoint: mean survival time, dose: 320.0 mg/kg/injection, schedule: Q01DX001 (oral), vehicle: saline 100 % of control | endpoint: mean survival time, dose: 320.0 mg/kg/injection, schedule: Q01DX009 (oral), vehicle: saline 120 % of control | endpoint: median survival time, dose: 4.0 mg/kg/injection, schedule: Q01DX009 (ip), vehicle: dextrose 110 % of control

CCOc1ccccc1/C=C1\N=C(c2cc(OC)c(OC)c(OC)c2)OC1=O
inactive: [9] 106 % of control | endpoint: mean survival time, dose: 200.0 mg/kg/injection, schedule: Q04DX002 (ip), vehicle: saline with Tween-80 100 % of control | endpoint: mean survival time, dose: 400.0 mg/kg/injection, schedule: Q04DX002 (ip), vehicle: saline with Tween-80 95 % of control

CCCCCCCCCCC(CCCCCCCCCC)C1CC(C)CCC1C (stereo unspecified)
inactive: [10] 94 % of control | endpoint: mean survival time, dose: 200.0 mg/kg/injection, schedule: Q01DX001 (ip), vehicle: saline 97 % of control | endpoint: mean survival time, dose: 400.0 mg/kg/injection, schedule: Q01DX001 (ip), vehicle: saline 97 % of control

COC1=C(C)C(=O)C2=C(C1=O)C(CO)N1C(C#N)C3CC4C(C1C2N1CCOC41)N3C (stereo unspecified)
inactive: endpoint: median survival time, dose: 0.12 mg/kg/injection, schedule: Q01DX005 (ip), vehicle: acid diluted with saline 102 % of control | endpoint: median survival time, dose: 0.12 mg/kg/injection, schedule: Q01DX009 (ip), vehicle: saline + alcohol 111 % of control | endpoint: median survival time, dose: 0.25 mg/kg/injection, schedule: Q01DX005 (ip), vehicle: acid diluted with saline 102 % of control | endpoint: median survival time, dose: 0.25 mg/kg/injection, schedule: Q01DX009 (ip), vehicle: saline + alcohol 113 % of control | endpoint: median survival time, dose: 0.5 mg/kg/injection, schedule: Q01DX005 (ip), vehicle: acid diluted with saline 105 % of control | endpoint: median survival time, dose: 0.5 mg/kg/injection, schedule: Q01DX009 (ip), vehicle: saline + alcohol 111 % of control | endpoint: median survival time, dose: 1.0 mg/kg/injection, schedule: Q01DX005 (ip), vehicle: acid diluted with saline 104 % of control | endpoint: median survival time, dose: 1.0 mg/kg/injection, schedule: Q01DX009 (ip), vehicle: saline + alcohol 108 % of control

CC(=O)Nc1ncc(C)s1
inactive: [4] 102 % of control | [1] 97 % of control | [5] 104 % of control | [2] 101 % of control | [6] 95 % of control | [3] 101 % of control

CC1=Nc2ccccc2N=C(C)C1
inactive: endpoint: mean survival time, dose: 50.0 mg/kg/injection, schedule: Q01DX009 (ip), vehicle: acetone 101 % of control | endpoint: mean survival time, dose: 100.0 mg/kg/injection, schedule: Q01DX009 (ip), vehicle: acetone 98 % of control

O=C(CCCC1CCCCC1)Cc1ccccc1
inactive: endpoint: mean survival time, dose: 100.0 mg/kg/injection, schedule: Q04DX003 (ip), vehicle: acetone 96 % of control | endpoint: mean survival time, dose: 200.0 mg/kg/injection, schedule: Q04DX003 (ip), vehicle: acetone 94 % of control | endpoint: mean survival time, dose: 400.0 mg/kg/injection, schedule: Q04DX003 (ip), vehicle: acetone 102 % of control

c1ccc(-c2csc3c4ccccc4c4ccccc4[n+]23)cc1
inactive: endpoint: mean survival time, dose: 0.5 mg/kg/injection, schedule: Q01DX009 (ip), vehicle: saline 104 % of control | endpoint: mean survival time, dose: 1.0 mg/kg/injection, schedule: Q01DX009 (ip), vehicle: saline 112 % of control | endpoint: mean survival time, dose: 2.0 mg/kg/injection, schedule: Q01DX009 (ip), vehicle: saline 112 % of control | endpoint: mean survival time, dose: 4.0 mg/kg/injection, schedule: Q01DX009 (ip), vehicle: saline 106 % of control | endpoint: mean survival time, dose: 8.0 mg/kg/injection, schedule: Q01DX009 (ip), vehicle: saline 101 % of control
